Assay results reported in US20080318778A1, “Agriculture Composition Method Comprising Nitric Oxide Generating Agent” (University of Sheffield, priority 2004, published 2008).

How the values were obtained:
grapevine cv Sultana = assay: Spraying of dormant grapevine cuttings, onset of bud burst in growth chamber; format: in vivo, Vitis vinifera L; details: H2CN2 2.5% spray
Description: Cuttings of grapevine cv Sultana with three dormant buds each were collected from a vineyard located at Antumapu Experimental Station, University of Chile, by the end of May 2003 (Autumn South Hemisphere). After fungicide treatment, they were kept wrapped up with plastic for one week in a dark and cold chamber at 7° C. day/night. […] The number of buds burst was registered every day after the first bud was detected starting to growth. This moment was considered as the initiation of the bud burst.

bean cv. Orfeo INIA = assay: Weekly spraying of field-grown bean plants, effect on yield (pods/plant, seed/plant); format: in vivo, Phaseolus vulgaris; details: sprayed every week for two months until pod setting, NaNO2 at 200 μM, AsA at 100 μM, mixture AsA/NaNO2 at 100 μM/200 μM, control sprayed with water
Description: Plants of bean cv Orfeo INIA were grown in rows 80 cm apart and at a density of 10 plants/m, during the 2001 Southern Spring in the Experimental Station of the Univ. of Chile, Santiago. Plants were irrigated twice a week with abundant water in order to avoid water stress at any developmental stage. Phytosanitary, weed and fertilizer conditions of the plant was controlled as recommended for commercial crop.
One month old plants were sprayed every week for a two month period, until pod setting with: NaNO2 at 200 μM; AsA at 100 μM and a mixture of AsA/NaNO2 at […]. Control plants were sprayed with water.

| SMILES | strength of effect on bud burst, AsA/NaNO2 compared with cyanamide (grapevine cv Sultana) | yield (Number of pods/plant and Number of seed/plant) (bean cv. Orfeo INIA) |
| --- | --- | --- |
| N#CN [cyanamide] | The effect was not as strong as with cyanamide | – |
| O=C1O[C@H]([C@@H](O)CO)C(O)=C1O [AsA, ascorbic acid] | – | neither AsA or NaNO2 alone had any effect on yield |
| O=NO [NaNO2, sodium nitrite] | – | neither AsA or NaNO2 alone had any effect on yield |
